Assay results from article PMC12481569, “Novltex: A New Class of Antibiotics with Potent Activity against Multidrug-Resistant Bacterial Pathogens–Design, Synthesis, and Biological Evaluation” (Journal of Medicinal Chemistry, 2025).
Positions of bridges follow the written chain, without caps; N, C: chain ends. Non-standard residues stand in square brackets, D forms with d. Residues, ends and D or L forms follow the SMILES beside them. dCha = N[C@H](CC1CCCCC1)C(=O)O

Tests used:
[1] = system: human primary dermal fibroblasts; experiment: Cytotoxicity, MTS-based assay; assay type: cell-based; settings: up to 50 μg/mL, 24 or 48 h, three independent experiments in triplicate
Description: 4 Cytotoxicity evaluation of analogue 12. Human primary dermal fibroblasts (A), liver cell line HepG2 (B), and kidney cell line HEK293T (C) cells (5 × 10^3 cells/well in 96-well plates) were treated with increasing concentrations of analogue 12 or 1 μM staurosporine (STS, used as a positive toxicity control) for 24 or 48 h, as indicated. Viability of cells was determined using an MTS-based assay. Results (% cell viability) are the mean ± SD of three independent experiments performed in triplicate. (D) Freshly collected human red blood cells (RBCs) were exposed to increasing concentrations of 12 or Triton X-100 (TX), as indicated, for 1 h. Hemolytic activity (% hemolysis) was determined by spectrophotometrically measuring the release of hemoglobin compared to that with TX (used as a positive control). Results are the mean ± SD of 4 independent experiments performed in duplicate using blood samples from four different anonymous healthy donors. […]
Bacterial cultures were grown overnight on Mueller-Hinton Agar (MHA) plates and adjusted to a final inoculum of 10^5 – 10^6 CFU/mL. […] MIC values were determined in the media contain ing polysorbate 80 (0.002%, v/v) to prevent non -specific adsorption of the peptides to plastic surfaces. […] All the experiments were performed in two independent duplicates and the MIC was determined as the lowest concentration in which no visible growth was observed. […]

[2] = system: MRSA DM21455; experiment: Cytoplasmic membrane potential DiSC3(5) assay; assay type: cell-based, Staphylococcus aureus; settings: 1× to 16× MIC, 1 h, room temperature, ex 622/em 670 nm; pronounced at 4× MIC
Description: To determine whether the bactericidal activity of analogue 12 is linked to bacterial membrane perturbations, we performed a DiSC3(5) assay, which utilizes a membrane-potential-sensitive dye to assess cytoplasmic membrane depolarization of MRSA. […]
day, cells were treated in triplicates with increasing concentrations of Novltex analogue 12, as indicated in the corresponding figure and the figure legend (Figure 4A-C). Cells were treated with 1 µM Staurosporine (MedChemExpress #HY-15141) as a positive kill control. Cell viability assessed after 24 h or 48 h incubation using an MTS-based CellTiter 96® AQueous One Solution Cell Proliferation Assay (Promega #G3582, Southampton UK) as per manufacturer’s instructions. Absorbance was recorded at 490 nm. Relative cell viability was determined by subtracting the blank (cell culture medium and MTS only) from individual values before normalizing against the untreated control.
Anonymized human blood samples were received from the Health Sciences Authority, Singapore and used as per the institutional guidelines and approved by the Institutional Review Board (IRB -2023-1019) of Nanyang Technological University Singapore. […] The supernatant was transferred to a new 96-well microplate and the absorbance was measured at 576 nm in the Infinite M200 monochromator microplate reader (Tecan Group Ltd., Switzerland). […]

CC(C)C[C@@H]1NC(=O)[C@H](C)NC(=O)[C@H](NC(=O)[C@H](CO)NC(=O)[C@@H](CCCCN)NC(=O)[C@@H](CC2CCCCC2)NC(=O)[C@@H](N)Cc2ccccc2)[C@H](C)OC(=O)[C@H](CC(C)C)NC1=O [analogue 12, Leu2Cha–Novltex] (H-F[dCha][dK]S[dT]ALL; ester 5-C)
cytotoxicity (cell viability), primary dermal fibroblasts [1]: no major cytotoxicity | change in DiSC3(5) fluorescence intensity (membrane depolarization) [2]: substantial increase in fluorescence intensity
